Consider one molecule from US10092570B2 (Incyte Corporation, priority 2011, dated 2018).

This assay deals with PI3K isoform δ (Homo sapiens (Human), UniProt O00329). The assay is described as follows: Example A2: PI3K enzyme assay ([γ-33P]ATP filter plate), PI3Kδ. It is filed as biochemical. The conditions noted are these: as determined by Assay A2. On the procedure: PI3K isoforms α, β, δ and γ are purchased from Millipore (Bedford, Mass.).
Inhibitors are first diluted serially in DMSO and added to the plate wells before the addition of other reaction components. The final concentration of DMSO in the assay is 0.5%. The PI3K assays are carried out at room temperature in 20 mM MOPS, pH 6.7, 10 mM MgCl2, 5 mM DTT and CHAPS 0.03%. The reaction mixture is prepared containing 50 μM PIP2, kinase and varying concentration of inhibitors. Reactions are initiated by the addition of ATP containing 2.2 μCi [γ-^33P]ATP to a final concentration of 1000 μM. […] Reactions are incubated for 180 minutes and terminated by the addition of 100 μL of 1 M potassium phosphate pH 8.0, 30 mM EDTA quench buffer. A 100 μL aliquot of the reaction solution are then transferred to 96-well Millipore MultiScreen IP 0.45 μm PVDF filter plate (The filter plate is prewetted with 200 μL 100% ethanol, distilled water, and 1 M potassium phosphate pH 8.0, respectively). […] After drying by aspiration and blotting, the plate is air dried in an incubator at 37° C. overnight. Packard TopCount adapter (Millipore) is then attached to the plate followed with addition of 120 μL Microscint 20 scintillation cocktail (Perkin Elmer) in each well. After the plate sealing, the radioactivity of the product is determined by scintillation counting on Topcount (Perkin-Elmer). […]

By IC50 is commonly meant the midpoint of a concentration-inhibition curve. Lower therefore signals inhibition by little substance.

The structures appear in SMILES notation.

Sequence of PI3K isoform δ (O00329 whole entry, canonical isoform): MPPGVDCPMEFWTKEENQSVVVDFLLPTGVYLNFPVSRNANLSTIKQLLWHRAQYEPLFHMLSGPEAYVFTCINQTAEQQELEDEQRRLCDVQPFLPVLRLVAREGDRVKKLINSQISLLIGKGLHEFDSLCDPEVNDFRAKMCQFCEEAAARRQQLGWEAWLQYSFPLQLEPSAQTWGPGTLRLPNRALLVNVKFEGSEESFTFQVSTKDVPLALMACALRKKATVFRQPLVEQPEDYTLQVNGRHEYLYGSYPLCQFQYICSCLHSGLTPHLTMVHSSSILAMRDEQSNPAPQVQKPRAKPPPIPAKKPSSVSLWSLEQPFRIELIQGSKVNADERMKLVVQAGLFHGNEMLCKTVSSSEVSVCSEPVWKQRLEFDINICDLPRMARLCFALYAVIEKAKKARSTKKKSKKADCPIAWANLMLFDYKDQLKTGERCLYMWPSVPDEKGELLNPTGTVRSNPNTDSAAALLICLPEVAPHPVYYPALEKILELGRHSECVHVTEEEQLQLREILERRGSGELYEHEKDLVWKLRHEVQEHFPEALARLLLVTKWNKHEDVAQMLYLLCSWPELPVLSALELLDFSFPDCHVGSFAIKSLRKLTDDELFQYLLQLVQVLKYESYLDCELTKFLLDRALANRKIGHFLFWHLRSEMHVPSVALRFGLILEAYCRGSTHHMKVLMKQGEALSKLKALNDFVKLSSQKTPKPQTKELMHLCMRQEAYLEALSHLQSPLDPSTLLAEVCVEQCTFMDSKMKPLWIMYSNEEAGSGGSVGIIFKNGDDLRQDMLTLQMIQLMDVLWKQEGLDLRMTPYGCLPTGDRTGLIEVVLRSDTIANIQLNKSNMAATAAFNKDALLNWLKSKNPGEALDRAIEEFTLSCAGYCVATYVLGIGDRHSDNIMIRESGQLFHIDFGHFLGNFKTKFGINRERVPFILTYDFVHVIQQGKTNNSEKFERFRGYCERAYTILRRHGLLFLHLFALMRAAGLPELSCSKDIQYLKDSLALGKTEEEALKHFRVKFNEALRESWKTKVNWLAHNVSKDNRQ
Sequence of PI3K isoform δ (P27986 whole entry partner, canonical isoform): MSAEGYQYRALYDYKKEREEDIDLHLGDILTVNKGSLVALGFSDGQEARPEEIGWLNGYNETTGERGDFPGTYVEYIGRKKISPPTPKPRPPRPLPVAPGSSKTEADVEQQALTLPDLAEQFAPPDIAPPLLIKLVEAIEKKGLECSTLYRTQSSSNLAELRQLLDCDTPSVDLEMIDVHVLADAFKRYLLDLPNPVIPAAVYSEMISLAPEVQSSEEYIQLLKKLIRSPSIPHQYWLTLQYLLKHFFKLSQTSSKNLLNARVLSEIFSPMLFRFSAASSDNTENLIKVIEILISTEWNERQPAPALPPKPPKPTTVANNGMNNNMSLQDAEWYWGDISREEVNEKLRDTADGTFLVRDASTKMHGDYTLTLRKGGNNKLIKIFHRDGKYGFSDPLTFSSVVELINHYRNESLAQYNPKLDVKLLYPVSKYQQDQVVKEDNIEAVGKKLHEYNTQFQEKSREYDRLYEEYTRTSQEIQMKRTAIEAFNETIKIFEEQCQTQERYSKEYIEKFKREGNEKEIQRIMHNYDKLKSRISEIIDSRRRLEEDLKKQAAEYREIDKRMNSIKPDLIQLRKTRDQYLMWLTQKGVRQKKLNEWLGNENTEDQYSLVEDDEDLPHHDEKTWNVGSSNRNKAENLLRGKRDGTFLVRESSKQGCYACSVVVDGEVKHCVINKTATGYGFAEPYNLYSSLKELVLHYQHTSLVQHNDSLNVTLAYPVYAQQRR

Turning to `COc1c([C@@H](C)n2nc(C)c3c(N)ncnc32)cc(Cl)c(C#N)c1C1CN(C[C@H](C)O)C1` [Example 361, 4-((R)-1-(4-amino-3-methyl-1H-pyrazolo[3,4-d]pyrimidin-1-yl)ethyl)-6-chloro-2-(1-((S)-2-hydroxypropyl)azetidin-3-yl)-3-methoxybenzonitrile], the IC50 is more than 500 nM.
